We go through seven compounds from ChEMBL document CHEMBL1127693, “Novel isoxazoles which interact with brain cholinergic channel receptors have intrinsic cognitive enhancing and anxiolytic activities” (J Med Chem, 1994).

Experiment [1] in a line: Binding affinity at CCR was determined by displacement of [125I]- alpha-BgT from Torpedo californica electroplax. More on the design: species or system Tetronarce californica.
A short description of experiment [2]: Binding affinity at CCR was determined by displacement of [125I]- alpha-BgT from rat brain. The format is tissue-based.
A short description of experiment [3]: Binding affinity at CCR was determined by displacement of [3H]cytisine from rat brain. The format is tissue-based.
Experiment [4] deals with Muscarinic acetylcholine receptor (Rattus norvegicus). Description: Binding affinity at muscarinic receptor was determined by displacement of [3H]OXO-M from rat brain.
Experiment [5] can be described thus: Binding affinity at CCR was determined by displacement of [3H]nicotine from rat brain. In kind it is tissue-based.

Where only a bound is given, the exact number is not on record here.

On to `Cc1cc([C@@H]2CCCN2)on1`, for which the Ki is more than 20000 nM in experiment [1], more than 20000 nM in experiment [2], 333 nM in experiment [3] and more than 20000 nM in experiment [4].

For the compound `Cc1cc([C@H]2CCCN2)on1`, the Ki in experiment [1] is 3400 nM; in experiment [2], more than 20000 nM; in experiment [3], 7.4 nM; in experiment [4] it was 8000 nM.

With `c1cncc([C@@H]2CCCN2)c1` [NORNICOTINE], the Ki is 11000 nM in experiment [1] and 56 nM in experiment [5].

`CN1CCC[C@@H]1c1cccnc1` [R-NICOTINE] came in with an inhibitory constant (Ki) in experiment [5] of 32 nM.

In experiment [5], `CN1CCC[C@H]1c1cccnc1` [NICOTINE] returned a Ki of 1.4 nM.

For `c1cncc([C@H]2CCCN2)c1`, the inhibition constant Ki is 300 nM in experiment [1] and 41 nM in experiment [5].

Regarding `Cc1cc([C@H]2CCCN2C)on1`, the Ki in experiment [3] was 44 nM.
